Results published in ChEMBL document CHEMBL1201862, “PubChem BioAssay data set” (2004).
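The compound was tested at five concentrations on cells cultured in 96-well plates, with a 48-hour exposure period. GI50 = concentration required for 50% inhibition of growth.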 Calls of active or inactive are those of the source. Cut-off read from the data, not from the text of the source: active = GI50 up to about 1.1 µM and inactive = higher.

Key:
Experiment in all cases: NCI anticancer screen, dose series, 48 h
NCI/ADR-RES = test system: NCI/ADR-RES
HL-60 = test system: HL-60
NCI-H460 = test system: NCI-H460
A498 = test system: A498
U-251 = test system: U-251
NCI-H23 = test system: NCI-H23
OVCAR-3 = test system: OVCAR-3
OVCAR-5 = test system: OVCAR-5
SF-295 = test system: SF-295
A549 = test system: A549
COLO 205 = test system: COLO 205
NCI-H226 = test system: NCI-H226
RXF 393 = test system: RXF 393
MDA-MB-231 = test system: MDA-MB-231
SNB-75 = test system: SNB-75
TK-10 = test system: TK-10
K562 = test system: K562
UO-31 = test system: UO-31
SR = test system: SR
HOP-92 = test system: HOP-92

Measured: GI50

CCCCn1cnnc1NS(=O)(=O)c1cc(C)c(Cl)cc1SCC(=O)O
inactive: NCI/ADR-RES > 10 µM | HL-60 > 10 µM | NCI-H460 > 10 µM | A498 > 10 µM | U-251 > 10 µM | NCI-H23 > 10 µM | OVCAR-3 > 10 µM | OVCAR-5 > 10 µM | SF-295 > 10 µM | A549 > 10 µM | COLO 205 > 10 µM | NCI-H226 > 10 µM | RXF 393 > 10 µM | MDA-MB-231 > 10 µM | SNB-75 > 10 µM | TK-10 > 10 µM | K562 > 10 µM | UO-31 > 10 µM

CC1(C)OC2OC(COC(=O)C=[N+]=[N-])C3OC(C)(C)OC3C2O1 (stereo not drawn)
inactive: SR > 100 µM | HL-60 > 100 µM | NCI-H460 > 100 µM | A498 > 100 µM | HOP-92 > 100 µM | U-251 > 100 µM | NCI-H23 > 100 µM | OVCAR-3 > 100 µM | OVCAR-5 > 100 µM | SF-295 > 100 µM | COLO 205 > 100 µM | NCI-H226 > 100 µM | RXF 393 > 100 µM | MDA-MB-231 > 100 µM | TK-10 > 100 µM | K562 > 100 µM | UO-31 > 100 µM

CCN(CC)Cc1ccc(C(=S)Nc2ccc(Cl)cc2)s1
inactive: NCI/ADR-RES 7.45 µM | SR 3.64 µM | HL-60 2.75 µM | NCI-H460 11.9 µM | A498 12 µM | U-251 12 µM | NCI-H23 2.34 µM | OVCAR-3 15.3 µM | OVCAR-5 11.3 µM | SF-295 9.91 µM | A549 11.2 µM | COLO 205 1.99 µM | K562 1.87 µM | UO-31 11.4 µM

O=Nc1c(-c2c(O)[nH]c3ccc(I)cc23)[nH]c2ccccc12
inactive: NCI/ADR-RES 8.2 µM | HL-60 2.61 µM | NCI-H460 3.7 µM | HOP-92 > 20.2 µM | U-251 5.62 µM | NCI-H23 4.58 µM | OVCAR-3 5.35 µM | OVCAR-5 3.25 µM | SF-295 6.28 µM | A549 3.27 µM | COLO 205 4.26 µM | RXF 393 2.36 µM | MDA-MB-231 3.79 µM | SNB-75 5.33 µM | TK-10 5.38 µM | UO-31 2.19 µM

O=c1[nH]cnc2c1sc1nc3ccccc3n12
inactive: NCI/ADR-RES > 100 µM | A498 33.3 µM | HOP-92 > 100 µM | U-251 > 100 µM | NCI-H23 > 100 µM | OVCAR-3 > 100 µM | OVCAR-5 > 100 µM | SF-295 > 100 µM | A549 > 100 µM | COLO 205 > 100 µM | NCI-H226 > 100 µM | RXF 393 16.3 µM | MDA-MB-231 > 100 µM | SNB-75 49.3 µM | TK-10 70 µM | UO-31 42.3 µM

c1ccc(/N=C2\C(=N/c3ccccc3)N(C3CCCCC3)/C(=N\C3CCCCC3)N2c2ccccc2)cc1
inactive: SR > 100 µM | HL-60 > 100 µM | NCI-H460 > 100 µM | A498 > 100 µM | HOP-92 > 100 µM | U-251 > 100 µM | NCI-H23 > 100 µM | OVCAR-5 > 100 µM | A549 > 100 µM | COLO 205 > 100 µM | NCI-H226 > 100 µM | RXF 393 > 100 µM | MDA-MB-231 > 100 µM | SNB-75 > 100 µM | TK-10 > 100 µM | K562 > 100 µM | UO-31 > 100 µM

CNc1cc(Cl)ccc1C(=O)N1CCC[C@H]1CO
inactive: NCI/ADR-RES > 100 µM | HL-60 81.7 µM | A498 > 100 µM | U-251 > 100 µM | NCI-H23 > 100 µM | OVCAR-5 > 100 µM | SF-295 > 100 µM | A549 > 100 µM | COLO 205 > 100 µM | NCI-H226 78.2 µM | RXF 393 > 100 µM | MDA-MB-231 > 100 µM | SNB-75 53.5 µM | TK-10 > 100 µM | UO-31 > 100 µM
